The IC50 is the concentration that gives 50% inhibition.

The target in the first test is T1, Recombinant human renin (Homo sapiens, UniProt P00797).
T1 sequence (P00797 67-406): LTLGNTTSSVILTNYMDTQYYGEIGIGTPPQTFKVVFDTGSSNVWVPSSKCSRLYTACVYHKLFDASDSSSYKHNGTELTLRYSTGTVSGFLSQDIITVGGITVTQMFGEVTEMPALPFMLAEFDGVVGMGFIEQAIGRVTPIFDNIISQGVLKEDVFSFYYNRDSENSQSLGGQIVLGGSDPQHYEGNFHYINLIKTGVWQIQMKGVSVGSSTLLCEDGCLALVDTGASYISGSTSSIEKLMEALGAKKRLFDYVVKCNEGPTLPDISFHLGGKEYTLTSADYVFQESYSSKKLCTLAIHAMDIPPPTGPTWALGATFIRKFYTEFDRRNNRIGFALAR
The experiment in a line: Inhibitory activity against human renin (fluorogenic peptide substrate). In kind it is biochemical. Conditions: 37° C. for 1 hour, read-out: IC50.
Consider `COCCCn1nc(C)c2ccc([C@@H](C)N(C(=O)[C@H]3CNCCO3)C3CC3)nc21` [Example 44], for which the IC50 came out at 3 nM.

Regarding `COCCCCn1cc([C@@H](C)N(C(=O)[C@H]2CNCCO2)C2CC2)c2ncc(C)nc21` [Example 93], the IC50 turned out to be 1.6 nM.

Staying with this test, now noted: 50% inhibitory concentration (IC50) against human renin, 37° C. for 1 hour.
Take `COC(=O)NCCCc1cc([C@H](C)N(C(=O)[C@H]2CNC[C@@H](CF)O2)C2CC2)nn1C1CCOCC1` [Example 340]: the IC50 was determined as 0.7 nM.

For the compound `CCn1nc([C@@H](C)N(C(=O)[C@H]2CNCCO2)C2CC2)cc1CCCNC(=O)OC` [Example 209], the IC50 was found to be 2.1 nM.

With `COC(=O)NCCCc1cc([C@@H](C)N(C(=O)[C@H]2CNCCO2)C2CC2)cc(C2CC2)n1` [Example 129], the IC50 was found to be 1.3 nM.

With `COC(=O)NCCCc1nc([C@@H](C)N(C(=O)[C@H]2CNCCO2)C2CC2)sc1-c1ccccc1F` [Example 417], the IC50 stood at 3.4 nM.

`COC[C@@H]1CNC[C@H](C(=O)N(C2CC2)[C@H](C)c2nc(CCCNC(=O)OC)c(-c3cccc(Cl)c3)s2)O1` [Example 378]: the IC50 stood at 3.5 nM.

As for `COC(=O)NCCCc1nc([C@@H](C)N(C(=O)[C@H]2CNCCO2)C2CC2)sc1C(=O)Nc1ccccc1OC` [Example 439], the IC50 worked out at 8 nM.

On to `COC(=O)NCCCc1cc([C@@H](C)N(C(=O)[C@H]2CNCCO2)C2CC2)sc1-c1cc(C(=O)OC)cc(C(F)(F)F)c1` [Example 260], for which the IC50 was determined as 2.6 nM.

Take `COC(=O)NCCCc1cc([C@@H](C)N(C(=O)[C@H]2CNCCO2)C2CC2)sc1-c1cnc(N)nc1` [Example 409]: the IC50 was 1 nM.

With `COC[C@H]1CO[C@@H](C(=O)N(C2CC2)[C@@H](C)c2nn(CCCNC(=O)OC)c(C3CCOCC3)c2F)CN1` [Example 328], the IC50 was 1.1 nM.

For the compound `COC(=O)NCCCc1cc([C@@H](C)N(C(=O)[C@H]2CNCCO2)C2CC2)sc1-c1ccccn1` [Example 227], the IC50 turned out to be 0.2 nM.

Consider `COC(=O)NCCCc1sc([C@@H](C)N(C(=O)[C@H]2CNCCO2)C2CC2)nc1-c1ccccc1` [Example 206], for which the IC50 turned out to be 1.5 nM.

For `COC(=O)NCCCc1cc([C@H](C)N(C(=O)[C@H]2CNCCO2)C2CC2)sc1-c1ccnn1C` [Example 427], the IC50 stood at 3.5 nM.

In the case of `COC(=O)NCCCc1cc([C@@H](C)N(C(=O)[C@H]2CNC[C@@H](C)O2)C2CC2)nn1-c1ccccc1C` [Example 345], the IC50 was 0.4 nM.

For `COCCOc1cc([C@@H](C)N(C(=O)[C@H]2CNC[C@@H](COC)O2)C2CC2)cc(CCCNC(=O)OC)n1` [Example 383], the IC50 stood at 1.3 nM.

As to `COC(=O)NCCCc1cc([C@@H](C)N(C(=O)[C@H]2CNCCO2)C2CC2)sc1-c1ccc(C)nc1` [Example 228], the IC50 turned out to be 0.4 nM.

For the origin of these results see patent US9556159B2, “Renin inhibitor” (MITSUBISHI TANABE PHARMA CORPORATION, priority 2012, dated 2017).
